{
  "source": "ChEMBL document CHEMBL5120965",
  "about": "“Moroidin, a Cyclopeptide from the Seeds of Celosia cristata That Induces Apoptosis in A549 Human Lung Cancer Cells” (J Nat Prod, 2022)",
  "key": {"A549 [1]": {"test_system": "A549", "test": "Antiproliferative activity against human A549 cells assessed as reduction in cell viability at 0.01 to 100 uM measured after 24 to 72 hrs by MTT assay", "format": "functional, cell-based", "conditions": "dose 0.01-100 µM, time 24-72 hrs"}, "A549 [2]": {"test_system": "A549", "test": "Induction of microtubule depolymerization in human A549 cells assessed as occurence of rounded cells at 2.5 uM measured after 48 hrs by DAPI staining based immunofluorescence assay", "format": "functional, cell-based"}, "A549 [3]": {"test_system": "A549", "test": "Induction of microtubule depolymerization in human A549 cells assessed as reduction in tubulin protein level at 2.5 uM by Western blot analysis", "format": "functional", "set-up": "scale not given: the % may be the effect or the level left"}, "A549 [4]": {"test_system": "A549", "test": "Induction of microtubule depolymerization in human A549 cells assessed as occurence of cell shrinkage at 2.5 uM measured after 48 hrs by DAPI staining based immunofluorescence assay", "format": "functional"}, "U-251": {"test_system": "U-251", "test": "Cytotoxicity against human U-251 cells assessed as reduction in cell viability incubated for 72 hrs by MTT assay", "format": "functional, cell-based", "conditions": "U-251, 72 h"}, "A549 [5]": {"test_system": "A549", "test": "Induction of cell apoptosis in human A549 cells assessed as increase in cleaved-caspase 9 level measured after 48 hrs by Western blot analysis", "format": "functional, cell-based", "conditions": "dose 5-20 µM, DDE = dose-dependent effect"}, "HCT-116": {"test_system": "HCT-116", "test": "Cytotoxicity against human HCT-116 cells assessed as reduction in cell viability incubated for 72 hrs by MTT assay", "format": "functional, cell-based", "conditions": "HCT-116, 72 h"}, "A549 [6]": {"test_system": "A549", "test": "Antiinvasive activity against human A549 cells assessed as reduction in number of invasion cells measured after 48 hrs by transwell assay based microscopic analysis", "format": "functional, cell-based", "conditions": "dose 0.5-2 µM, DDE = dose-dependent effect"}, "A549 [7]": {"test_system": "A549", "test": "Antimigratory activity against human A549 cells assessed as reduction in number of migrated cells measured after 48 hrs by transwell assay based microscopic analysis", "format": "functional, cell-based", "conditions": "dose 0.5-2 µM, DDE = dose-dependent effect"}, "A549 [8]": {"test_system": "A549", "test": "Induction of cell apoptosis in human A549 cells assessed as increase in PARP level measured after 48 hrs by Western blot analysis", "format": "functional, cell-based", "conditions": "dose 5-20 µM, DDE = dose-dependent effect"}, "A549 [9]": {"test_system": "A549", "test": "Induction of cell apoptosis in human A549 cells assessed as increase in apoptosis rate at 20 uM measured after 48 hrs by annexinV-FITC/propidium iodide staining based flow cytometry analysis (reference value: 3.27%)", "format": "functional"}, "A549 [10]": {"test_system": "A549", "test": "Inhibition of colony formation in human A549 cells up to 20 uM measured after 10 days by crystal violet staining based assay", "format": "functional, cell-based", "conditions": "dose 1.25-20 µM, time 10.0 day, DDE = dose-dependent effect"}, "A549 [11]": {"test_system": "A549", "test": "Induction of cell cycle arrest in human A549 cells assessed as decrease in ratio of cells at G1 phase measured after 48 hrs by […]propidium iodide staining based flow cytometry analysis", "format": "functional", "conditions": "dose 5-20 µM, DDE = dose-dependent effect"}, "A549 [12]": {"test_system": "A549", "test": "Induction of cell cycle arrest in human A549 cells assessed as increase in accumulation of cells at G2/M phase at 5 to 20 uM measured after 48 hrs by […]propidium iodide staining based flow cytometry analysis (reference value: 8.33%)", "format": "functional", "conditions": "dose 5-20 µM"}, "A549 [13]": {"test_system": "A549", "test": "Induction of cell apoptosis in human A549 cells assessed as increase in Bax expression level at 5 to 20 uM measured after 48 hrs by Western blot analysis", "format": "functional, cell-based", "conditions": "dose 5-20 µM"}, "A549 [14]": {"test_system": "A549", "test": "Induction of cell apoptosis in human A549 cells assessed as increase in Bax/Bcl-2 ratio at 5 to 20 uM measured after 48 hrs by Western blot analysis", "format": "functional, cell-based", "conditions": "dose 5-20 µM"}, "A549 [15]": {"test_system": "A549", "test": "Induction of cell apoptosis in human A549 cells assessed as increase in apoptosis rate at 10 uM measured after 48 hrs by annexinV-FITC/propidium iodide staining based flow cytometry analysis (reference value: 3.27%)", "format": "functional"}, "A549 [16]": {"test_system": "A549", "test": "Cytotoxicity against human A549 cells assessed as reduction in cell viability incubated for 72 hrs by MTT assay", "format": "functional, cell-based", "conditions": "A549, 72 h"}, "A549 [17]": {"test_system": "A549", "test": "Induction of cell apoptosis in human A549 cells assessed as increase in cleaved PARP level measured after 48 hrs by Western blot analysis", "format": "functional, cell-based", "conditions": "dose 5-20 µM, DDE = dose-dependent effect"}, "A549 [18]": {"test_system": "A549", "test": "Induction of cell apoptosis in human A549 cells assessed as increase in apoptosis rate at 5 uM measured after 48 hrs by annexinV-FITC/propidium iodide staining based flow cytometry analysis (reference value: 3.27%)", "format": "functional"}, "A549 [19]": {"test_system": "A549", "test": "Antimigratory activity against human A549 cells assessed as migration of cells into scratch area at 2 uM measured after 48 hrs by scratch assay based microscopic analysis (reference value: 85.15%)", "format": "functional"}, "A549 [20]": {"test_system": "A549", "test": "Antimigratory activity against human A549 cells assessed as migration of cells into scratch area at 0.5 uM measured after 48 hrs by scratch assay based microscopic analysis (reference value: 85.15%)", "format": "functional"}, "MCF7 [21]": {"test_system": "MCF7", "test": "Inhibition of colony formation in human MCF7 cells measured after 10 days by crystal violet staining based assay", "format": "functional, cell-based", "conditions": "dose 1.25-20 µM, time 10.0 day, DDE = dose-dependent effect"}, "A549 [22]": {"test_system": "A549", "test": "Induction of cell apoptosis in human A549 cells assessed as reduction in AKT phosphorylation at 5 to 20 uM measured after 48 hrs by Western blot analysis", "format": "functional, cell-based", "conditions": "dose 5-20 µM"}, "A549 [23]": {"test_system": "A549", "test": "Induction of cell apoptosis in human A549 cells assessed as reduction in AKT expression at 5 to 20 uM measured after 48 hrs by Western blot analysis", "format": "functional, cell-based", "conditions": "dose 5-20 µM"}, "MCF7 [24]": {"test_system": "MCF7", "test": "Cytotoxicity against human MCF7 cells assessed as reduction in cell viability incubated for 72 hrs by MTT assay", "format": "functional, cell-based", "conditions": "MCF7, 72 h"}, "A549 [25]": {"test_system": "A549", "test": "Induction of cell apoptosis in human A549 cells assessed as increase in pro-caspase 9 level measured after 48 hrs by Western blot analysis", "format": "functional, cell-based", "conditions": "dose 5-20 µM, DDE = dose-dependent effect"}, "A549 [26]": {"test_system": "A549", "test": "Induction of microtubule depolymerization in human A549 cells assessed as fragmentation of microtubule network measured after 48 hrs by DAPI staining based immunofluorescence assay", "format": "functional, cell-based", "conditions": "dose 2.5-5 µM"}, "NCI-H1299": {"test_system": "NCI-H1299", "test": "Cytotoxicity against human H1299 cells assessed as reduction in cell viability incubated for 72 hrs by MTT assay", "format": "functional, cell-based", "conditions": "NCI-H1299, 72 h"}, "A549 [27]": {"test_system": "A549", "test": "Induction of cell apoptosis in human A549 cells assessed as increase in pro-caspase 3 level measured after 48 hrs by Western blot analysis", "format": "functional, cell-based", "conditions": "dose 5-20 µM, DDE = dose-dependent effect"}, "A549 [28]": {"test_system": "A549", "test": "Induction of microtubule depolymerization in human A549 cells assessed as reduction in microtubule network measured after 48 hrs by DAPI staining based immunofluorescence assay", "format": "functional, cell-based", "conditions": "dose 2.5-5 µM"}, "A549 [29]": {"test_system": "A549", "test": "Antimigratory activity against human A549 cells assessed as migration of cells into scratch area at 1 uM measured after 48 hrs by scratch assay based microscopic analysis (reference value: 85.15%)", "format": "functional"}, "A549 [30]": {"test_system": "A549", "test": "Induction of cell apoptosis in human A549 cells assessed as decrease in Bcl-2 expression level at 5 to 20 uM measured after 48 hrs by Western blot analysis", "format": "functional, cell-based", "conditions": "dose 5-20 µM"}, "A549 [31]": {"test_system": "A549", "test": "Induction of cell apoptosis in human A549 cells assessed as increase in cleaved-caspase 3 level measured after 48 hrs by Western blot analysis", "format": "functional, cell-based", "conditions": "dose 5-20 µM, DDE = dose-dependent effect"}, "U-87 MG": {"test_system": "U-87 MG", "test": "Cytotoxicity against human U87 cells assessed as reduction in cell viability incubated for 72 hrs by MTT assay", "format": "functional, cell-based, U-87MG ATCC"}},
  "note": "The source made the active and inactive calls. No cut-off for these calls is given here.",
  "data": [
    {"smiles": "COc1cc2c(c(OC)c1OC)-c1ccc(OC)c(=O)cc1[C@@H](NC(C)=O)CC2", "note": "[COLCHICINE]", "values": [
      {"measurement": "Activity", "setting": "A549 [1]", "value": "Active"},
      {"measurement": "Activity", "setting": "A549 [2]", "value": "Active"},
      {"measurement": "Activity", "setting": "A549 [3]", "value": 63, "unit": "%"},
      {"measurement": "Activity", "setting": "A549 [4]", "value": "Active"}
    ]},
    {"smiles": "CC(C)C[C@@H]1NC(=O)[C@@H](NC(=O)[C@@H]2CCC(=O)N2)[C@H](C(C)C)c2ccc3c4c([nH]c3c2)-n2cnc(c2)C[C@@H](C(=O)O)NC(=O)CNC(=O)[C@H](CCCNC(=N)N)NC(=O)[C@H](C4)NC(=O)[C@H](C(C)C)NC1=O", "values": [
      {"measurement": "IC50", "setting": "U-251", "value": 5.2, "unit": "µM"},
      {"measurement": "Activity", "setting": "A549 [5]", "value": "Dde"},
      {"measurement": "IC50", "setting": "HCT-116", "value": 9.9, "unit": "µM"},
      {"measurement": "Activity", "setting": "A549 [6]", "value": "Dde"},
      {"measurement": "Activity", "setting": "A549 [7]", "value": "Dde"},
      {"measurement": "Activity", "setting": "A549 [8]", "value": "Dde"},
      {"measurement": "Activity", "setting": "A549 [9]", "value": 20.62, "unit": "%"},
      {"measurement": "inhibition", "setting": "A549 [10]", "value": "Dde"},
      {"measurement": "Activity", "setting": "A549 [11]", "value": "Dde"},
      {"measurement": "Activity", "setting": "A549 [12]", "value": 36.35, "unit": "%"},
      {"measurement": "Activity", "setting": "A549 [13]", "value": "Active"},
      {"measurement": "Activity", "setting": "A549 [14]", "value": "Active"},
      {"measurement": "Activity", "setting": "A549 [15]", "value": 11.4, "unit": "%"},
      {"measurement": "Activity", "setting": "A549 [3]", "value": 20, "unit": "%"},
      {"measurement": "IC50", "setting": "A549 [16]", "value": 3.2, "unit": "µM"},
      {"measurement": "Activity", "setting": "A549 [17]", "value": "Dde"},
      {"measurement": "Activity", "setting": "A549 [18]", "value": 6.14, "unit": "%"},
      {"measurement": "Activity", "setting": "A549 [19]", "value": 21.92, "unit": "%"},
      {"measurement": "Activity", "setting": "A549 [20]", "value": 60.84, "unit": "%"},
      {"measurement": "inhibition", "setting": "MCF7 [21]", "value": "Dde"},
      {"measurement": "Activity", "setting": "A549 [22]", "value": "Active"},
      {"measurement": "Activity", "setting": "A549 [23]", "value": "Active"},
      {"measurement": "IC50", "setting": "MCF7 [24]", "value": "> 10", "unit": "µM"},
      {"measurement": "Activity", "setting": "A549 [25]", "value": "Dde"},
      {"measurement": "Activity", "setting": "A549 [26]", "value": "Active"},
      {"measurement": "IC50", "setting": "NCI-H1299", "value": 8.3, "unit": "µM"},
      {"measurement": "Activity", "setting": "A549 [27]", "value": "Dde"},
      {"measurement": "Activity", "setting": "A549 [28]", "value": "Active"},
      {"measurement": "Activity", "setting": "A549 [29]", "value": 40.22, "unit": "%"},
      {"measurement": "Activity", "setting": "A549 [30]", "value": "Active"},
      {"measurement": "Activity", "setting": "A549 [31]", "value": "Dde"},
      {"measurement": "IC50", "setting": "U-87 MG", "value": 9.6, "unit": "µM"}
    ]}
  ]
}
